According to BigSolDB 2.1:

Question: Which solubility (mole fraction) (in THF, 278.15 K) does the source give for `Clc1ncnc2[nH]ccc12` here?
Answer: 0.0461

Question: And the solubility (mole fraction) (in THF, 283.15 K)?
Answer: 0.0501

Question: What about the solubility (mole fraction) (in THF, 288.15 K) of the same compound?
Answer: 0.0544

Question: What about the solubility (mole fraction) (in THF, 293.15 K) of the same compound?
Answer: 0.0594

Question: What about the solubility (mole fraction) (in THF, 298.15 K) of the same compound?
Answer: 0.0644

Question: What about the solubility (mole fraction) (in THF, 303.15 K) of the same compound?
Answer: 0.0699

Question: What about the solubility (mole fraction) (in THF, 308.15 K) of the same compound?
Answer: 0.0757

Question: And the solubility (mole fraction) (in THF, 313.15 K)?
Answer: 0.0818

Question: What about the solubility (mole fraction) (in THF, 318.15 K) of the same compound?
Answer: 0.0881

Question: What about the solubility (mole fraction) (in THF, 323.15 K) of the same compound?
Answer: 0.0954

Question: What about the solubility (mole fraction) (in acetone, 278.15 K) of the same compound?
Answer: 0.0146

Question: And the solubility (mole fraction) (in acetone, 283.15 K)?
Answer: 0.0165

Question: What about the solubility (mole fraction) (in acetone, 288.15 K) of the same compound?
Answer: 0.0187

Question: And the solubility (mole fraction) (in acetone, 293.15 K)?
Answer: 0.021

Question: And the solubility (mole fraction) (in acetone, 298.15 K)?
Answer: 0.0238

Question: What about the solubility (mole fraction) (in acetone, 303.15 K) of the same compound?
Answer: 0.0265

Question: And the solubility (mole fraction) (in acetone, 308.15 K)?
Answer: 0.0296

Question: And the solubility (mole fraction) (in acetone, 313.15 K)?
Answer: 0.0331

Question: And the solubility (mole fraction) (in acetone, 318.15 K)?
Answer: 0.0368

Question: And the solubility (mole fraction) (in acetone, 323.15 K)?
Answer: 0.0409

Question: What about the solubility (mole fraction) (in acetonitrile, 278.15 K) of the same compound?
Answer: 0.00218

Question: And the solubility (mole fraction) (in acetonitrile, 283.15 K)?
Answer: 0.00277

Question: What about the solubility (mole fraction) (in acetonitrile, 288.15 K) of the same compound?
Answer: 0.00338

Question: What about the solubility (mole fraction) (in acetonitrile, 293.15 K) of the same compound?
Answer: 0.00413

Question: What about the solubility (mole fraction) (in acetonitrile, 298.15 K) of the same compound?
Answer: 0.00502

Question: And the solubility (mole fraction) (in acetonitrile, 303.15 K)?
Answer: 0.00615

Question: What about the solubility (mole fraction) (in acetonitrile, 308.15 K) of the same compound?
Answer: 0.00736

Question: And the solubility (mole fraction) (in acetonitrile, 313.15 K)?
Answer: 0.00881

Question: What about the solubility (mole fraction) (in acetonitrile, 318.15 K) of the same compound?
Answer: 0.0104

Question: What about the solubility (mole fraction) (in acetonitrile, 323.15 K) of the same compound?
Answer: 0.0124

Question: And the solubility (mole fraction) (in ethanol, 278.15 K)?
Answer: 0.00849

Question: And the solubility (mole fraction) (in ethanol, 283.15 K)?
Answer: 0.0098

Question: And the solubility (mole fraction) (in ethanol, 288.15 K)?
Answer: 0.0113

Question: What about the solubility (mole fraction) (in ethanol, 293.15 K) of the same compound?
Answer: 0.0131

Question: And the solubility (mole fraction) (in ethanol, 298.15 K)?
Answer: 0.0151

Question: And the solubility (mole fraction) (in ethanol, 303.15 K)?
Answer: 0.0174

Question: What about the solubility (mole fraction) (in ethanol, 308.15 K) of the same compound?
Answer: 0.0199

Question: What about the solubility (mole fraction) (in ethanol, 313.15 K) of the same compound?
Answer: 0.0225

Question: And the solubility (mole fraction) (in ethanol, 318.15 K)?
Answer: 0.0256

Question: What about the solubility (mole fraction) (in ethanol, 323.15 K) of the same compound?
Answer: 0.0291

Question: What about the solubility (mole fraction) (in ethyl acetate, 278.15 K) of the same compound?
Answer: 0.0132

Question: And the solubility (mole fraction) (in ethyl acetate, 283.15 K)?
Answer: 0.0151

Question: And the solubility (mole fraction) (in ethyl acetate, 288.15 K)?
Answer: 0.0172

Question: And the solubility (mole fraction) (in ethyl acetate, 293.15 K)?
Answer: 0.0194

Question: What about the solubility (mole fraction) (in ethyl acetate, 298.15 K) of the same compound?
Answer: 0.0218

Question: And the solubility (mole fraction) (in ethyl acetate, 303.15 K)?
Answer: 0.0246

Question: What about the solubility (mole fraction) (in ethyl acetate, 308.15 K) of the same compound?
Answer: 0.0274

Question: And the solubility (mole fraction) (in ethyl acetate, 313.15 K)?
Answer: 0.0307

Question: What about the solubility (mole fraction) (in ethyl acetate, 318.15 K) of the same compound?
Answer: 0.034

Question: What about the solubility (mole fraction) (in ethyl acetate, 323.15 K) of the same compound?
Answer: 0.0376

Question: What about the solubility (mole fraction) (in isopropanol, 278.15 K) of the same compound?
Answer: 0.00973

Question: What about the solubility (mole fraction) (in isopropanol, 283.15 K) of the same compound?
Answer: 0.0113

Question: What about the solubility (mole fraction) (in isopropanol, 288.15 K) of the same compound?
Answer: 0.0131

Question: And the solubility (mole fraction) (in isopropanol, 293.15 K)?
Answer: 0.0151

Question: What about the solubility (mole fraction) (in isopropanol, 298.15 K) of the same compound?
Answer: 0.0174

Question: And the solubility (mole fraction) (in isopropanol, 303.15 K)?
Answer: 0.0198

Question: And the solubility (mole fraction) (in isopropanol, 308.15 K)?
Answer: 0.0226

Question: What about the solubility (mole fraction) (in isopropanol, 313.15 K) of the same compound?
Answer: 0.0258

Question: What about the solubility (mole fraction) (in isopropanol, 318.15 K) of the same compound?
Answer: 0.0291

Question: And the solubility (mole fraction) (in isopropanol, 323.15 K)?
Answer: 0.0328

Question: And the solubility (mole fraction) (in methanol, 278.15 K)?
Answer: 0.0065

Question: What about the solubility (mole fraction) (in methanol, 283.15 K) of the same compound?
Answer: 0.00781

Question: What about the solubility (mole fraction) (in methanol, 288.15 K) of the same compound?
Answer: 0.0093

Question: What about the solubility (mole fraction) (in methanol, 293.15 K) of the same compound?
Answer: 0.011

Question: And the solubility (mole fraction) (in methanol, 298.15 K)?
Answer: 0.013

Question: And the solubility (mole fraction) (in methanol, 303.15 K)?
Answer: 0.0152

Question: And the solubility (mole fraction) (in methanol, 308.15 K)?
Answer: 0.0177

Question: And the solubility (mole fraction) (in methanol, 313.15 K)?
Answer: 0.0205

Question: What about the solubility (mole fraction) (in methanol, 318.15 K) of the same compound?
Answer: 0.0236

Question: What about the solubility (mole fraction) (in methanol, 323.15 K) of the same compound?
Answer: 0.0272

Question: And the solubility (mole fraction) (in n-butanol, 278.15 K)?
Answer: 0.0122

Question: And the solubility (mole fraction) (in n-butanol, 283.15 K)?
Answer: 0.0139

Question: And the solubility (mole fraction) (in n-butanol, 288.15 K)?
Answer: 0.0157

Question: What about the solubility (mole fraction) (in n-butanol, 293.15 K) of the same compound?
Answer: 0.0179

Question: And the solubility (mole fraction) (in n-butanol, 298.15 K)?
Answer: 0.0202

Question: And the solubility (mole fraction) (in n-butanol, 303.15 K)?
Answer: 0.0227

Question: And the solubility (mole fraction) (in n-butanol, 308.15 K)?
Answer: 0.0254

Question: And the solubility (mole fraction) (in n-butanol, 313.15 K)?
Answer: 0.0285

Question: And the solubility (mole fraction) (in n-butanol, 318.15 K)?
Answer: 0.0317

Question: And the solubility (mole fraction) (in n-butanol, 323.15 K)?
Answer: 0.0354

Question: What about the solubility (mole fraction) (in n-heptane, 278.15 K) of the same compound?
Answer: 0.000583

Question: What about the solubility (mole fraction) (in n-heptane, 283.15 K) of the same compound?
Answer: 0.00075

Question: What about the solubility (mole fraction) (in n-heptane, 288.15 K) of the same compound?
Answer: 0.00095

Question: What about the solubility (mole fraction) (in n-heptane, 293.15 K) of the same compound?
Answer: 0.0012

Question: And the solubility (mole fraction) (in n-heptane, 298.15 K)?
Answer: 0.0015

Question: What about the solubility (mole fraction) (in n-heptane, 303.15 K) of the same compound?
Answer: 0.00187

Question: And the solubility (mole fraction) (in n-heptane, 308.15 K)?
Answer: 0.00229

Question: And the solubility (mole fraction) (in n-heptane, 313.15 K)?
Answer: 0.00281

Question: What about the solubility (mole fraction) (in n-heptane, 318.15 K) of the same compound?
Answer: 0.00343

Question: What about the solubility (mole fraction) (in n-heptane, 323.15 K) of the same compound?
Answer: 0.00415

Question: And the solubility (mole fraction) (in n-hexane, 278.15 K)?
Answer: 0.000393

Question: And the solubility (mole fraction) (in n-hexane, 283.15 K)?
Answer: 0.000511

Question: And the solubility (mole fraction) (in n-hexane, 288.15 K)?
Answer: 0.000652

Question: What about the solubility (mole fraction) (in n-hexane, 293.15 K) of the same compound?
Answer: 0.000851

Question: What about the solubility (mole fraction) (in n-hexane, 298.15 K) of the same compound?
Answer: 0.00106

Question: What about the solubility (mole fraction) (in n-hexane, 303.15 K) of the same compound?
Answer: 0.00132

Question: What about the solubility (mole fraction) (in n-hexane, 308.15 K) of the same compound?
Answer: 0.00165

Question: And the solubility (mole fraction) (in n-hexane, 313.15 K)?
Answer: 0.00202

Question: What about the solubility (mole fraction) (in n-hexane, 318.15 K) of the same compound?
Answer: 0.0025

Question: And the solubility (mole fraction) (in n-hexane, 323.15 K)?
Answer: 0.00306

Question: And the solubility (mole fraction) (in n-propanol, 278.15 K)?
Answer: 0.0098

Question: What about the solubility (mole fraction) (in n-propanol, 283.15 K) of the same compound?
Answer: 0.0114

Question: And the solubility (mole fraction) (in n-propanol, 288.15 K)?
Answer: 0.0134

Question: And the solubility (mole fraction) (in n-propanol, 293.15 K)?
Answer: 0.0155

Question: What about the solubility (mole fraction) (in n-propanol, 298.15 K) of the same compound?
Answer: 0.018

Question: And the solubility (mole fraction) (in n-propanol, 303.15 K)?
Answer: 0.0205

Question: What about the solubility (mole fraction) (in n-propanol, 308.15 K) of the same compound?
Answer: 0.0235

Question: And the solubility (mole fraction) (in n-propanol, 313.15 K)?
Answer: 0.0269

Question: What about the solubility (mole fraction) (in n-propanol, 318.15 K) of the same compound?
Answer: 0.0305

Question: And the solubility (mole fraction) (in n-propanol, 323.15 K)?
Answer: 0.0347

Question: What about the solubility (mole fraction) (in toluene, 278.15 K) of the same compound?
Answer: 0.000808

Question: And the solubility (mole fraction) (in toluene, 283.15 K)?
Answer: 0.000993

Question: And the solubility (mole fraction) (in toluene, 288.15 K)?
Answer: 0.00124

Question: And the solubility (mole fraction) (in toluene, 293.15 K)?
Answer: 0.00153

Question: And the solubility (mole fraction) (in toluene, 298.15 K)?
Answer: 0.00186

Question: What about the solubility (mole fraction) (in toluene, 303.15 K) of the same compound?
Answer: 0.00225

Question: And the solubility (mole fraction) (in toluene, 308.15 K)?
Answer: 0.00272

Question: And the solubility (mole fraction) (in toluene, 313.15 K)?
Answer: 0.00324

Question: What about the solubility (mole fraction) (in toluene, 318.15 K) of the same compound?
Answer: 0.00387

Question: What about the solubility (mole fraction) (in toluene, 323.15 K) of the same compound?
Answer: 0.00461
